Values quoted from earlier work in patent US20180169172A1, “COMPOUND AND METHOD FOR REDUCING APPETITE, FATIGUE AND PAIN” (priority 2018, published 2018).
Where two headings read alike, the source gives them in different places.

What was measured:
[1] = microplate reader determination
[2] = not given; remark: listed apart in the source
[3] = not given; remark: listed apart in the source
[4] = not given; remark: listed apart in the source
[5] = test system: rodents; settings: dose levels of 800-900 mg/kg in rodents
[6] = test system: rats; settings: 200 mg/kg in rats; mitragynine given orally
[7] = test system: Kratom users; settings: even after chronic and high dosage consumption
[8] = target: μ-subtype opioid receptor (MOR) (Homo sapiens, UniProt P35372)
Chain of μ-subtype opioid receptor (MOR) (P35372 whole entry): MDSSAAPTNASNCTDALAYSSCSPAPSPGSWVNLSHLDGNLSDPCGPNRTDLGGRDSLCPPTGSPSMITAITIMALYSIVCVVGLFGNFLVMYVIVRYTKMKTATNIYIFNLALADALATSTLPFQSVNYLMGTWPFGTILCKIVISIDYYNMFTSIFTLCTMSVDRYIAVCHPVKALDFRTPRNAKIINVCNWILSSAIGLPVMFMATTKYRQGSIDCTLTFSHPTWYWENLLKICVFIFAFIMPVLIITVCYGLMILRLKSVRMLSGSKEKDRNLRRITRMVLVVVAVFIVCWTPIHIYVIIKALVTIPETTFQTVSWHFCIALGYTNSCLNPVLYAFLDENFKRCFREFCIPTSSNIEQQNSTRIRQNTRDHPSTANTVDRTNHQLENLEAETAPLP

[9] = test system: animal; settings: animal studies, versus codeine
[10] = test system: skeletal muscle; settings: rat, in vivo
[11] = test system: compound nerve action potential; settings: 2 mg/mL
[12] = test system: gastric acid secretion
[13] = test system: mice; settings: even upon oral administration
[14] = test system: gastrointestinal transit; settings: subcutaneous, mice
[15] = test system: pain; settings: by mouth, immediate-release formulation
[16] = nine subjects, oral Kratom tea, loading dose

CC[C@@H]1CN2CCc3c([nH]c4cccc(OC)c34)[C@@H]2C[C@@H]1/C(=C\OC)C(=O)OC [mitragynine, (αE,2S,3S,12bS)-3-ethyl-1,2,3,4,6,7,12,12b-octahydro-8-methoxy-α-(methoxymethylene)-indolo[2,3-a]quinolizine-2-acetic acid methyl ester]
pKa [1]: 8.08±0.04
logP: 1.73
stability in acid ([2]; acidic environments): acid labile
water solubility ([2]; water): < 0.1 mg/mL
solubility ([2]; water and basic media): poor solubility in water and basic media
total drug release in dissolution ([3]; simulated gastric fluid (SGF)): higher
total drug release in dissolution ([3]; simulated intestinal fluid (SIF)): prolonged and incomplete
urine excretion of unchanged form ([4]; 24-hour period): 0.14%
apparent volume of distribution [4, 16]: 38.04 ± 24.32 L/kg
terminal half-life [4, 16]: 23.24 ± 16.07 h
time to reach the maximum plasma concentration [4, 16]: 0.83 ± 0.35 h
toxicity [5]: no toxicity
lethality [6]: lethal effects
mortalities following consumption alone [7]: no reports of mortalities
agonism at μ-subtype opioid receptor [8]: selective and full agonists
antinociceptive effect [9]: comparable to those of codeine
cough-suppressant effect [9]: comparable to those of codeine
skeletal muscle relaxation [10]: produced skeletal muscle relaxation
nerve conduction, amplitude and duration of compound nerve action potential [11]: blocked
2-deoxy-D-glucose-stimulated gastric acid secretion ([12]; administration into fourth ventricle of anesthetized rats, reversed by naloxone): inhibition
basal gastric acid secretion ([12]; administration into the lateral ventricle): did not alter

CC[C@@H]1CN2CC[C@@]3(O)C(=Nc4cccc(OC)c43)[C@@H]2C[C@@H]1/C(=C\OC)C(=O)OC [7-hydroxymitragynine, (αE,2S,3S,7aS,12bS)-3-ethyl-1,2,3,4,6,7,7a,12b-octahydro-7a-hydroxy-8-methoxy-α-(methoxymethylene)-indolo [2,3-a]quinolizine-2-acetic acid methyl ester]
analgesic potency relative to morphine [13]: several times more potent analgesic than morphine
agonism at μ-subtype opioid receptor [8]: selective and full agonists
gastrointestinal transit [14]: caused an inhibition

COc1cccc(C2(O)CCCCC2CN(C)C)c1 (stereo not shown) [Tramadol, tramadol]
onset of pain relief [15]: within an hour
